# Laboratory results taken from publication PMC5447021, “TNF Lectin-Like Domain Restores Epithelial Sodium Channel Function in Frameshift Mutants Associated with Pseudohypoaldosteronism Type 1B” (Frontiers in Immunology, 2017).
# How the values were obtained:
# αβγ-hENaC = biological target: T1, αβγ-hENaC (Homo sapiens, UniProt P37088+P51168+P51170); test: Whole-cell patch clamp, WT αβγ-hENaC; format: cell-based; details: exposure time, WT αβγ-ENaC (Figure 1)
# T1 construct: expressed in transfected cells; host or cells: HEK-293
# T1 sequence (P37088 1-669): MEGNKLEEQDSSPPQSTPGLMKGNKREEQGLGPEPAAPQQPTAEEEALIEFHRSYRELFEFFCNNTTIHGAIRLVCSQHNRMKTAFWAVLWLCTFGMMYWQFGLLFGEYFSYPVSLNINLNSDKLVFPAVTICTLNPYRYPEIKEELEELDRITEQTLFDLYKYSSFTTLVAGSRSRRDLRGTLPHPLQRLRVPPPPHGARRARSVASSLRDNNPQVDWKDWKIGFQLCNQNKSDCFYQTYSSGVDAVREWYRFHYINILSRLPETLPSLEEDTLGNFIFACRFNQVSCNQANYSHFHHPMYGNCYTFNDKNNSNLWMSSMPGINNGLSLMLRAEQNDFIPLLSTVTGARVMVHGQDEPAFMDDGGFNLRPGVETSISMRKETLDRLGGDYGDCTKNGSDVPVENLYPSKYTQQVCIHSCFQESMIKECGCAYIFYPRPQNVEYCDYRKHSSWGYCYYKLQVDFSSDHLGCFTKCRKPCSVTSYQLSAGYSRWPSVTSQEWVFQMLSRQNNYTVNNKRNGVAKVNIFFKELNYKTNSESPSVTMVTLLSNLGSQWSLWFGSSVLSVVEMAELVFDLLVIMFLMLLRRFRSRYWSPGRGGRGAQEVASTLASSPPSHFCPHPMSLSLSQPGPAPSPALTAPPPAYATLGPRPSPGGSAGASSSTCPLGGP
# T1 sequence (P51168 1-640 partner): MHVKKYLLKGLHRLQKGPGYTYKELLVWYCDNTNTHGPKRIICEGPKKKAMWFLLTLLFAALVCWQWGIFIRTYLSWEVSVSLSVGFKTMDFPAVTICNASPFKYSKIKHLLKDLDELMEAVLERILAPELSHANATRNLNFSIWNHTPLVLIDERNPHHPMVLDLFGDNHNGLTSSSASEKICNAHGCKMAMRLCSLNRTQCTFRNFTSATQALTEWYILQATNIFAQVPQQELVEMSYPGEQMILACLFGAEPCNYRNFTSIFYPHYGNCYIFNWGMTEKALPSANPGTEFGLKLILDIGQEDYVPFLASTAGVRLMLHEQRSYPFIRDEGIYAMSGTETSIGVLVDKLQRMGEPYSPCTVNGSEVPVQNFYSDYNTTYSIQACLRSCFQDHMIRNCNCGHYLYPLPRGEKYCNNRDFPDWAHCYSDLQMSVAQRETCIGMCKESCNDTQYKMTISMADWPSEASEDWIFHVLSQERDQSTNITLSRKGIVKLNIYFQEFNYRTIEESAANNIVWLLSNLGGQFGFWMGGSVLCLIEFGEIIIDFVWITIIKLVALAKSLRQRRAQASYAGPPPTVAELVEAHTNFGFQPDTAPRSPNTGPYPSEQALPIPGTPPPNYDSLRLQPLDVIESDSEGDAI
# T1 sequence (P51170 1-649 partner): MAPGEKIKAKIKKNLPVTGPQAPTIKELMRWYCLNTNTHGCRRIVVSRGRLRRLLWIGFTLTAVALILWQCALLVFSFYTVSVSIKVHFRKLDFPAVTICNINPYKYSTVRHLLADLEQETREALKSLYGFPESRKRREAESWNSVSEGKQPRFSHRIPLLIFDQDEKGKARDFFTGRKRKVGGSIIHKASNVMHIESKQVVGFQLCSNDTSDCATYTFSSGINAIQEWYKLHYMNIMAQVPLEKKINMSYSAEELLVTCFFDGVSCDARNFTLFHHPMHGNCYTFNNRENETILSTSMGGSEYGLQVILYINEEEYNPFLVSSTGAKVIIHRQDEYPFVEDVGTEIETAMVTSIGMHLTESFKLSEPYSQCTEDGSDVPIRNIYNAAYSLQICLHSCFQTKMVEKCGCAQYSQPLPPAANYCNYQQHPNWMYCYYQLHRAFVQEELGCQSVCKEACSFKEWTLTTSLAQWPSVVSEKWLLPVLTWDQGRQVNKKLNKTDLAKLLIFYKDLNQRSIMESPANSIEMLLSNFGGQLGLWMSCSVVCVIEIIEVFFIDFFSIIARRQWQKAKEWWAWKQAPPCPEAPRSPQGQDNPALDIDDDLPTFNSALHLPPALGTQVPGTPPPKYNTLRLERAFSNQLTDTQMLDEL
# Protocol: Point mutations of α-, β-, γ- and δ-hENaC and PHA1B frameshift mutations of α-hENaC were prepared with the QuikChange Lightning Site-Directed Mutagenesis Kit (Agilent Technologies, CA, USA). Mutagenic primers were designed individually with the Primer Design Program provided on the producer’s website or for the frameshift mutations the same base changes as reported in patients (see Table 2) were performed. Primers were ordered from Sigma-Aldrich, Vienna, Austria.
# HEK-293 cells were transfected 1 day after cell seeding using X-tremeGENE HP DNA transfection reagent (Roche Diagnostics, Mannheim, Germany) according to the manufacturer’s protocol. A set of WT or mutant αβγ- or δβγ-hENaC, or α-, β-, γ-, or δ-hENaC alone was used, and the ratio of DNA to transfection reagent was 1:3. The expression was highest 48–72 h after transfection.
# Electrophysiological experiments were performed as described in detail by Shabbir et al. ([16]). […] Currents were recorded with the patch clamp method in the whole-cell mode. The chamber contained 1 ml of the bath solution of the following composition (in mM): 145 NaCl, 2.7 KCl, 1.8 CaCl2, 2 MgCl2, 5.5 glucose, and 10 HEPES, adjusted to pH 7.4 with 1 M NaOH solution. Micropipettes were pulled from thin-walled borosilicate glass capillaries (Harvard Apparatus, Holliston, MA, USA) with a DMZ Zeitz Puller to obtain electrode resistances ranging from 2 to 5 MΩ. The pipette solution contained (in millimolars): 135 potassium methane sulfonate, 10 KCl, 6 NaCl, 1 Mg2ATP, 2 Na3ATP, 10 HEPES, and 0.5 EGTA, adjusted to pH 7.2 with 1 M KOH solution. Chemicals for pipette and bathing solutions were supplied by Sigma-Aldrich (Vienna, Austria). Electrophysiological measurements were carried out with an Axopatch 200B patch clamp amplifier (Axon Instruments, CA, USA). Capacity transients were canceled, and series resistance was compensated. Whole-cell currents were filtered at 5 kHz and sampled at 10 kHz. Data acquisition and storage were processed directly to a PC equipped with pCLAMP 10.2 software (Axon Instruments, CA, USA). […]
# δ-ENaC = details: HEK-293, 5 and 10 min; returns after 1 h; cited from earlier work
compound,measurement,setting,value
"C[C@@H]1NC(=O)CNC(=O)[C@H](CCC(=O)O)NC(=O)[C@@H]2CCCN2C(=O)[C@H]([C@@H](C)O)NC(=O)[C@H](CCC(=O)O)NC(=O)[C@H](CCCNC(=N)N)NC(=O)[C@H](CCC(N)=O)NC(=O)CNC(=O)[C@@H](N)CSSC[C@@H](C(=O)O)NC(=O)[C@H](Cc2ccc(O)cc2)NC(=O)[C@H](Cc2c[nH]c3ccccc23)NC(=O)[C@@H]2CCCN2C(=O)[C@H](CCCCN)NC(=O)[C@H](C)NC(=O)[C@H](CCC(=O)O)NC1=O [solnatide, L-cysteine, L-cysteinylglycyl-L-glutaminyl-L-arginyl-L-α-glutamyl-L-threonyl-L-prolyl-L-α-glutamylglycyl-L-alanyl-L-α-glutamyl-L-alanyl-L-lysyl-L-prolyl-L-tryptophyl-L-tyrosyl-, cyclic (1→17)-disulfide]",Time to maximal stimulatory effect,αβγ-hENaC,~ 2 min
same,"Membrane abundance, solnatide",δ-ENaC,significant statistically
